According to patent publication US20220095617A1, “PLANT GROWTH REGULATING AGENT” (IDEMITSU KOSAN CO.,LTD., priority 2019, published 2022):

Tested on: Cabbage (Okina)
Test: Example 10: High-temperature stress pot test (cabbage)
Assay type: in vivo
Settings: for Fresh weight of above-ground part, Increase rate / Fresh weight of underground part, Increase rate: non-addition group = 100.0; for Fresh weight of above-ground part, Average / Fresh weight of underground part, Average: greenhouse 35° C., 30 days
Experimental: Cabbage (Okina, Takii & Co., Ltd.) was sown on a cell tray filled with seedling culture soil (manufactured by Nihon Hiryo Co., Ltd.; “Naebijin N100”). […] Cultivation was carried out in a greenhouse (average daytime temperature, 35° C.) for 30 days, and then the fresh weight of the above-ground part and the fresh weight of the underground part were evaluated. For each group, 15 to 20 measurement results were obtained (N=15 to 20).

COc1ccc([C@@H]2CC(=O)c3c(O)cc(O[C@@H]4O[C@H](CO[C@@H]5O[C@@H](C)[C@H](O)[C@@H](O)[C@H]5O)[C@@H](O)[C@H](O)[C@H]4O)cc3O2)cc1O [Hesperidin]
Fresh weight of above-ground part, Increase rate (100 ppm): 118.0% | Fresh weight of underground part, Increase rate (100 ppm): 130.6% | Fresh weight of above-ground part, Increase rate (1000 ppm): 97.1% | Fresh weight of underground part, Increase rate (1000 ppm): 103.2% | Fresh weight of above-ground part, Average (drenching 100 ppm): 0.87 g | Fresh weight of underground part, Average (drenching 100 ppm): 0.32 g | Fresh weight of above-ground part, Average (drenching 1000 ppm): 0.72 g | Fresh weight of underground part, Average (drenching 1000 ppm): 0.25 g
